What was measured:
Assay in all cases: SILAC proteomics / in-gel fluorescence, competition of probe 13-t labeling by 3a
[1] = target: T1, proteins of HEK293T cells transiently overexpressing caspase-6 (Homo sapiens, UniProt O75844)
T1 sequence (O75844 1-475): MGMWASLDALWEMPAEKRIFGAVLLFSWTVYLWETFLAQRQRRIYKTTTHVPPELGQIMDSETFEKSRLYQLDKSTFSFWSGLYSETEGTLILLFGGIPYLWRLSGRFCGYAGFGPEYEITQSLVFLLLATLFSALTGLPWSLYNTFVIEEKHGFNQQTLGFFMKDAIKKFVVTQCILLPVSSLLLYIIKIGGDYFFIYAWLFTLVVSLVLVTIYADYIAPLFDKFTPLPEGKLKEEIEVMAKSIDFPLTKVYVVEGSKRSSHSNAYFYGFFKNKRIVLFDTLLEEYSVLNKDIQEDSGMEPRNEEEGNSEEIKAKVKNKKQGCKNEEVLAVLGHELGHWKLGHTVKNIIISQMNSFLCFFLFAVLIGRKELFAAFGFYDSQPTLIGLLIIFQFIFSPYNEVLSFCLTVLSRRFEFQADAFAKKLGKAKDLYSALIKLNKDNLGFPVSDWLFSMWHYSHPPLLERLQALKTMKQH

[2] = target: proteins of HEK293T cells transiently overexpressing caspase-6 (Homo sapiens, UniProt P12956); details: Comp; protein XRCC6 P12956
[3] = target: proteins of HEK293T cells transiently overexpressing caspase-6 (Homo sapiens, UniProt P09874); details: Comp; protein PARP1 P09874
proteins of HEK293T cells transiently overexpressing caspase-6 (Homo sapiens, UniProt P09874), sequence (P09874 whole entry): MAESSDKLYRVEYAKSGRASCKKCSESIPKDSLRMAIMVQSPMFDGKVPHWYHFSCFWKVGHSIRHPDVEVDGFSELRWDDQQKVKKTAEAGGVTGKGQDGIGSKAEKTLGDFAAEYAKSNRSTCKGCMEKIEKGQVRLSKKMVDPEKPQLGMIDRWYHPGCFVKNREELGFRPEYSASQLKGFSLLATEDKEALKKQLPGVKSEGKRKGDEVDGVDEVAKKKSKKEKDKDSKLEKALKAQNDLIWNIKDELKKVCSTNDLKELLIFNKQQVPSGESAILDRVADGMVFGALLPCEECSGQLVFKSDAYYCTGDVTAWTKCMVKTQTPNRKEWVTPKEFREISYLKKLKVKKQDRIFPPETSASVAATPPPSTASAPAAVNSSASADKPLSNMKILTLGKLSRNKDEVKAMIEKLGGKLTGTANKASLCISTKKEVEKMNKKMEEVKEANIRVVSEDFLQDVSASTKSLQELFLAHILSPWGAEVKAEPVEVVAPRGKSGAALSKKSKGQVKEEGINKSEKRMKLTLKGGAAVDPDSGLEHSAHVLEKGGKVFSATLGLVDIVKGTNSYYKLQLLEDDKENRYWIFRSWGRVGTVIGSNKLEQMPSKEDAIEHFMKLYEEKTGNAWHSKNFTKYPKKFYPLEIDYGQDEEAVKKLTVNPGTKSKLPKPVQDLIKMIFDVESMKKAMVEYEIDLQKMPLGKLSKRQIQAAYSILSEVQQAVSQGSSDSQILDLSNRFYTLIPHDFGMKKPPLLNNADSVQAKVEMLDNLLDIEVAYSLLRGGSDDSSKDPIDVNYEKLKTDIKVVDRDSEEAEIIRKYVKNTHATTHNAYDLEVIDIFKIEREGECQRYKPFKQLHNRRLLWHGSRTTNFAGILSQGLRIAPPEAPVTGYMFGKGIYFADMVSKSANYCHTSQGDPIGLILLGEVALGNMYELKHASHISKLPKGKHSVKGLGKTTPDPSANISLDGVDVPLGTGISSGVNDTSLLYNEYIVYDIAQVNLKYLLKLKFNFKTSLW

[4] = target: proteins of HEK293T cells transiently overexpressing caspase-6 (Homo sapiens, UniProt O00571)
proteins of HEK293T cells transiently overexpressing caspase-6 (Homo sapiens, UniProt O00571), sequence (O00571 whole entry): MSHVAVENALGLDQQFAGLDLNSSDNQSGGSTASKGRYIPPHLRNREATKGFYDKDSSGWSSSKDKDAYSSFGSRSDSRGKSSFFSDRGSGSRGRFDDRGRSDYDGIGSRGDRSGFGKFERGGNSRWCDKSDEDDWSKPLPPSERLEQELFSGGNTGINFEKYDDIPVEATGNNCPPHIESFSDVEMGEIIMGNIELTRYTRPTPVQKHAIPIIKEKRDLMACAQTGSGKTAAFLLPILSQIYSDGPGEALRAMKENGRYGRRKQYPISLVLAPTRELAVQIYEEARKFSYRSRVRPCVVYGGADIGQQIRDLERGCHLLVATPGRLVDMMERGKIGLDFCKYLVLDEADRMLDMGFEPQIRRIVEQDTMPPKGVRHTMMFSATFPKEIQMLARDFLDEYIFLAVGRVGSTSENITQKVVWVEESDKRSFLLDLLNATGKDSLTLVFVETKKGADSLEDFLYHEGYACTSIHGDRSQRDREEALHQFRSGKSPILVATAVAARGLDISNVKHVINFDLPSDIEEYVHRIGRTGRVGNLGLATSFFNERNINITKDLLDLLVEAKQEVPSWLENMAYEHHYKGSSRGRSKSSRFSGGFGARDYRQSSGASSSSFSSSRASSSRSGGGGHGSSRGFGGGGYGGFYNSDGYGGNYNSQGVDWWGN

[5] = target: proteins of HEK293T cells transiently overexpressing caspase-6 (Homo sapiens, UniProt Q86VP6); details: Comp; protein CAND1 Q86VP6
proteins of HEK293T cells transiently overexpressing caspase-6 (Homo sapiens, UniProt Q86VP6), sequence (Q86VP6 whole entry): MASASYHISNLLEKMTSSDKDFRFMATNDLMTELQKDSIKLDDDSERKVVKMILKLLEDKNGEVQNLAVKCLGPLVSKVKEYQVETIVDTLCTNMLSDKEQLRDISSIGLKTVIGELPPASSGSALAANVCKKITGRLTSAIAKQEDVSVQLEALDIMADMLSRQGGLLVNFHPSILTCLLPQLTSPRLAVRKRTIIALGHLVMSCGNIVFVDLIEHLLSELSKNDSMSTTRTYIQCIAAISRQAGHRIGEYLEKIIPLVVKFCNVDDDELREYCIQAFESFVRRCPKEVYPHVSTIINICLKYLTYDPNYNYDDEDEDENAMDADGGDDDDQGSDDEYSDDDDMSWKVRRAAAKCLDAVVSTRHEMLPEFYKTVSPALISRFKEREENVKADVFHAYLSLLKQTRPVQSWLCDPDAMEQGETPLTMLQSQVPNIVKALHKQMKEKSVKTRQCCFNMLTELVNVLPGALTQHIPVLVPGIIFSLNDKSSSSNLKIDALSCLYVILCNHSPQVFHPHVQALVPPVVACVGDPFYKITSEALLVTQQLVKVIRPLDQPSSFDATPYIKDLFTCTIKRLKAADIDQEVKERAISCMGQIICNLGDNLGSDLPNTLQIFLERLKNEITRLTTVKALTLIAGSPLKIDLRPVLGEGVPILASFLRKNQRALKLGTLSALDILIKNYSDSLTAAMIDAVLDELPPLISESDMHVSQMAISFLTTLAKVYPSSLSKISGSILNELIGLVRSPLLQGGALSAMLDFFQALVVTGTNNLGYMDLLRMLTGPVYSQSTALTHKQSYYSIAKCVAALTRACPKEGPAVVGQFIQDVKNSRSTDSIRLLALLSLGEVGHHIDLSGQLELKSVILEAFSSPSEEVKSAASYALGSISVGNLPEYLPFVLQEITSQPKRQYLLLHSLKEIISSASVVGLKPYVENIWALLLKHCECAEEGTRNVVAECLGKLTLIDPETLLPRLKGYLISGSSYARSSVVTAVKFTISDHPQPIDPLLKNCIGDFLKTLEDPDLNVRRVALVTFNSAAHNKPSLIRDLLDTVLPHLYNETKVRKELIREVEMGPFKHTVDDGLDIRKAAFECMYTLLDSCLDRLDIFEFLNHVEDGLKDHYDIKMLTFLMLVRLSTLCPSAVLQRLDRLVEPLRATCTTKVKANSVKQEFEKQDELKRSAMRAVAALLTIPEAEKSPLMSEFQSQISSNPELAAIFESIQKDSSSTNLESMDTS

[6] = target: proteins of HEK293T cells transiently overexpressing caspase-6 (Homo sapiens, UniProt P27695); details: Comp; protein APEX1 P27695
proteins of HEK293T cells transiently overexpressing caspase-6 (Homo sapiens, UniProt P27695), sequence (P27695 whole entry): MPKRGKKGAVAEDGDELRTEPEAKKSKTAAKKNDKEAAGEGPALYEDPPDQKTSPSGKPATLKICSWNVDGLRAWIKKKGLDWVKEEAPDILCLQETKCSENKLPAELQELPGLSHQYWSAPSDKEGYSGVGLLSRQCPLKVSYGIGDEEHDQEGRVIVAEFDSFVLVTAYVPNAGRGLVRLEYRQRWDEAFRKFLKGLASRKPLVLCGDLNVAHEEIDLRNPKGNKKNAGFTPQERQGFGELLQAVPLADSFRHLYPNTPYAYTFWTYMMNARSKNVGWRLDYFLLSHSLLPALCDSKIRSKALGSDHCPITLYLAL

[7] = target: proteins of HEK293T cells transiently overexpressing caspase-6 (Homo sapiens, UniProt Q9Y230); details: Comp; protein RUVBL2 Q9Y230
proteins of HEK293T cells transiently overexpressing caspase-6 (Homo sapiens, UniProt Q9Y230), sequence (Q9Y230 whole entry): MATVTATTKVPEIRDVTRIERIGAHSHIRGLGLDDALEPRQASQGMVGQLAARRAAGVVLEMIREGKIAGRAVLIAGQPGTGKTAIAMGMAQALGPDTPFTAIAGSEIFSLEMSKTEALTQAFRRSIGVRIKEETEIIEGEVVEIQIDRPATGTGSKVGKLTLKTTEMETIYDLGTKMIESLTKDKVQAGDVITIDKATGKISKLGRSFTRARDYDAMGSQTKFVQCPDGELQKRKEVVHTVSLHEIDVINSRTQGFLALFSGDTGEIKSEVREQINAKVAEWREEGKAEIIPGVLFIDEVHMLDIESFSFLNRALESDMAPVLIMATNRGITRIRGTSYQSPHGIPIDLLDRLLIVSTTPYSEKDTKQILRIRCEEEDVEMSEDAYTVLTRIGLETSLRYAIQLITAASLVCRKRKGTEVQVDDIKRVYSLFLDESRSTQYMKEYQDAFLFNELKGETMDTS

[8] = target: T2, proteins of HEK293T cells transiently overexpressing caspase-6 (Homo sapiens, UniProt P14324)
T2 sequence (P14324 1-419): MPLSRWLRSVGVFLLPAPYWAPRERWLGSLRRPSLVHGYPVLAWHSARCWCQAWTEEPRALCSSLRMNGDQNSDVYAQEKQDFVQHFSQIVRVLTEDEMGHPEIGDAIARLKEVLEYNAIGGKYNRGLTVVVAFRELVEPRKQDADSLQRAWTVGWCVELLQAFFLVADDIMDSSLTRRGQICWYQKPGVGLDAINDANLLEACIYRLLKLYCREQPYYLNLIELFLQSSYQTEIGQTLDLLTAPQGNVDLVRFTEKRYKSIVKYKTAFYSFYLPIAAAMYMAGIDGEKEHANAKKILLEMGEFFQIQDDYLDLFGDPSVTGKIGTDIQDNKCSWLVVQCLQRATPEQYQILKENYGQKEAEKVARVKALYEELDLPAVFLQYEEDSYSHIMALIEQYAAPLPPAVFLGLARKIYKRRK

[9] = target: proteins of HEK293T cells transiently overexpressing caspase-6 (Homo sapiens, UniProt P83731); details: Comp; protein RPL24 P83731
[10] = target: proteins of HEK293T cells transiently overexpressing caspase-6 (Homo sapiens, UniProt P23526); details: Comp; protein AHCY P23526
proteins of HEK293T cells transiently overexpressing caspase-6 (Homo sapiens, UniProt P23526), sequence (P23526 whole entry): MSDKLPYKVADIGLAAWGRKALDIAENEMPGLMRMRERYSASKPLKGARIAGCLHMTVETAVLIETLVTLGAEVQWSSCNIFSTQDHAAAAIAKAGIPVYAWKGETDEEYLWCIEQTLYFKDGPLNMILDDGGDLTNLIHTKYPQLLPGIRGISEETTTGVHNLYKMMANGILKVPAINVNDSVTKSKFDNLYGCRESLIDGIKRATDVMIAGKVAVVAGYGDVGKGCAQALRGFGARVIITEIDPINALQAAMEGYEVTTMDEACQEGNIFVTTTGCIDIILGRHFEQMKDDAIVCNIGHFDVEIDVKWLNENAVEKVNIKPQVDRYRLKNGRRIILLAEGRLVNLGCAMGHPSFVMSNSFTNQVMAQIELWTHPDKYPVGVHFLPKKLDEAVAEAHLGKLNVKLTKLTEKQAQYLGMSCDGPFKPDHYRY

[11] = target: proteins of HEK293T cells transiently overexpressing caspase-6 (Homo sapiens, UniProt P34897); details: Comp; protein SHMT2 P34897
proteins of HEK293T cells transiently overexpressing caspase-6 (Homo sapiens, UniProt P34897), sequence (P34897 30-504): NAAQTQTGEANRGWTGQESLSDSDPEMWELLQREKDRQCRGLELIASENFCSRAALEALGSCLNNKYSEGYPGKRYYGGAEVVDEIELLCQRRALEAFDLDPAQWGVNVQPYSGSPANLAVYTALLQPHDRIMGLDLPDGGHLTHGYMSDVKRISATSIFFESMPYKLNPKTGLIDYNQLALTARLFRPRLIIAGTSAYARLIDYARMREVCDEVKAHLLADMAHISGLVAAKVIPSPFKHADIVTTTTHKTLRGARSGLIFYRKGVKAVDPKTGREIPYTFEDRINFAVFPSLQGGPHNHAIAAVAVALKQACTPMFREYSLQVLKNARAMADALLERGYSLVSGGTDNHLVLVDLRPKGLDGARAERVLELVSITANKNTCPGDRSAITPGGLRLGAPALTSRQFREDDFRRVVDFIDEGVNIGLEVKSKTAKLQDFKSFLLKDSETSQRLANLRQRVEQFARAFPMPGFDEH

[12] = target: proteins of HEK293T cells transiently overexpressing caspase-6 (Homo sapiens, UniProt Q12905); details: Comp; protein ILF2 Q12905
proteins of HEK293T cells transiently overexpressing caspase-6 (Homo sapiens, UniProt Q12905), sequence (Q12905 whole entry): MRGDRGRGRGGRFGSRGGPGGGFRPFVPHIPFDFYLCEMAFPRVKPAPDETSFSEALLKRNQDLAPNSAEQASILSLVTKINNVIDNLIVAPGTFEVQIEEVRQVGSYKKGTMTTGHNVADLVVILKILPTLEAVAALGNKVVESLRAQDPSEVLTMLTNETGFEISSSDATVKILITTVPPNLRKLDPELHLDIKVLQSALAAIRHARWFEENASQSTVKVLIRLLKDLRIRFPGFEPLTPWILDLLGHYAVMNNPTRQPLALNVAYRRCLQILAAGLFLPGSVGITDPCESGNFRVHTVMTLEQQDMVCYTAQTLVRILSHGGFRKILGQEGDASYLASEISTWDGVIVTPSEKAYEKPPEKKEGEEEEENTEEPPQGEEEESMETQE

[13] = target: T3, proteins of HEK293T cells transiently overexpressing caspase-6 (Homo sapiens, UniProt Q9UQ80); details: Comp; protein PA2G4 Q9UQ80
T3 sequence (Q9UQ80 1-394): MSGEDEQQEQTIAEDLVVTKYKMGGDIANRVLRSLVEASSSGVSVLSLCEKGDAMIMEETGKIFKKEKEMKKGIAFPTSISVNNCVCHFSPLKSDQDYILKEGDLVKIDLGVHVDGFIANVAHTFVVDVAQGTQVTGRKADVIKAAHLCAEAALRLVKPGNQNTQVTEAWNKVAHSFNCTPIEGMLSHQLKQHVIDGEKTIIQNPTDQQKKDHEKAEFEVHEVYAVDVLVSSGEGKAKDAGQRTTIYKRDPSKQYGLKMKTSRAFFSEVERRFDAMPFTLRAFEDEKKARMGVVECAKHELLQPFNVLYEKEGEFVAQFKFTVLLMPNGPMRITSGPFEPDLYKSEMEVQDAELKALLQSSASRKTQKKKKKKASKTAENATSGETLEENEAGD

[14] = protein ZMPSTE24 (O75844), Exp Comp, analysis C6, p 0.5000, 2 peptides
[15] = protein DDX3X (O00571), Exp Comp, analysis C6, p 0.1250, 4 peptides
[16] = protein FDPS (P14324), Exp Comp, analysis C6, p 0.2500, 4 peptides

Work on C=CS(=O)(=O)N1C[C@H](C(=O)Nc2ccc(OC(F)(F)F)cc2)C[C@@H](c2ccccc2)C1 [3a] yielded an enrich.exp.med ([1]; Comp, protein ZMPSTE24 O75844) of 1.01, an enrich.exp.med.lin [1, 14] of 2.0144 and an enrich.exp.med.log2 [1, 14] of 1.01. For the same molecule, the enrich.exp.med [2] was 0.7902, the enrich.exp.med [3] was 0.6484 and the enrich.exp.med ([4]; Comp, protein DDX3X O00571) was 1.089. The enrich.exp.med.lin [4, 15] was 2.128, the enrich.exp.med.log2 [4, 15] was 1.089 and the enrich.exp.med [5] was 0.6553. It also gave an enrich.exp.med [6] of 0.6367, an enrich.exp.med [7] of 0.7589 and an enrich.exp.med ([8]; Comp, protein FDPS P14324) of 1.087. For the same molecule, the enrich.exp.med.lin [8, 16] was 2.124, the enrich.exp.med.log2 [8, 16] was 1.087 and the enrich.exp.med [9] was 0.668. It also gave an enrich.exp.med [10] of 0.6961, an enrich.exp.med [11] of 0.5876 and an enrich.exp.med [12] of 0.7326. The enrich.exp.med [13] was 0.7436.

Reference: PMC10176470, “Engaging a Non-catalytic Cysteine Residue Drives Potent and Selective Inhibition of Caspase-6” (Journal of the American Chemical Society, 2023)
